Source: PubChem BioAssay (NCI)
“And” between values parts separate entries of the source, which are not always exact repeats. Equal entries are not always repeated.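 In this assay, cells in 96-well plates receive the compound at five concentrations for 48 hours. Endpoints are linearly interpolated between the surrounding concentrations. GI50 = concentration required for 50% inhibition of growth. TGI is the concentration that stops growth completely.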

Experiments:
Assay in all cases: NCI tumour cell line growth inhibition, 48 h
HOP-92 NSCLC = test system: HOP-92 NSCLC
K-562 leukemia = test system: K-562 leukemia
IGROV1 ovarian = test system: IGROV1 ovarian
TK-10 renal = test system: TK-10 renal
PC-3 prostate = test system: PC-3 prostate
A549 NSCLC = test system: A549 NSCLC
HCT-15 colon = test system: HCT-15 colon
SNB-75 CNS = test system: SNB-75 CNS
HS 578T breast = test system: HS 578T breast
HL-60(TB) leukemia = test system: HL-60(TB) leukemia

SMILES	GI50 (HOP-92 NSCLC)	TGI (HOP-92 NSCLC)	GI50 (K-562 leukemia)	TGI (K-562 leukemia)	GI50 (IGROV1 ovarian)	TGI (IGROV1 ovarian)	GI50 (TK-10 renal)	TGI (TK-10 renal)	GI50 (PC-3 prostate)	TGI (PC-3 prostate)	GI50 (A549 NSCLC)	TGI (A549 NSCLC)	GI50 (HCT-15 colon)	TGI (HCT-15 colon)	GI50 (SNB-75 CNS)	TGI (SNB-75 CNS)	GI50 (HS 578T breast)	TGI (HS 578T breast)	TGI (HL-60(TB) leukemia)	GI50 (HL-60(TB) leukemia)
O=C(Nc1nc2c(C(F)(F)F)cccc2s1)c1cc(Cl)ccc1O	0.188 µM	0.705 µM	0.327 µM	> 100 µM	0.511 µM	35 µM	0.365 µM	10.7 µM	0.302 µM	30.3 µM	0.316 µM	> 100 µM	0.338 µM	13.2 µM	0.262 µM	41.6 µM	0.268 µM	26.3 µM		
O=C(Nc1ccc(Br)cc1)C(=O)C(C(=O)c1ccc(Cl)c(Cl)c1)C1OC(=O)c2ccccc21 (stereo unspecified)		58.4 µM		> 100 µM		42.8 µM		51.6 µM				46 µM		53.7 µM		65.9 µM			> 100 µM	
O=C(Nc1ccc(Cl)c(Cl)c1)c1ccc(NC2=C(Cl)C(=O)N(Cc3ccccc3)C2=O)cc1			2.34 µM	5.93 µM	2.71 µM	8.14 µM	18.8 µM	39.2 µM	3.55 µM	13.4 µM	11.9 µM	27.3 µM			16.1 µM	56.4 µM	5.37 µM	27 µM	7.68 µM	2.82 µM
Cc1cc(-c2ccccc2)nc(Nc2cc3ccccc3[nH]2)n1		> 100 µM		> 100 µM		> 100 µM		> 100 µM				> 100 µM		> 100 µM					> 100 µM	
O=C1c2ccccc2C(=O)N1CC#CCO				> 100 µM				> 100 µM				> 100 µM		> 100 µM					> 100 µM	
CC(=O)C(CN1C(=O)c2ccccc2C1=O)C(C)=O		> 100 µM		> 100 µM		> 100 µM		> 100 µM		> 100 µM		> 100 µM		> 100 µM		> 100 µM		> 100 µM		
COc1cc(C2c3cc4c(cc3[C@@H](NC3CCN(Cc5ccccc5)CC3)C3COC(=O)[C@H]23)OCO4)cc(OC)c1O (stereo partly specified)	0.143 µM and 0.026 µM	0.73 µM and 0.0934 µM	0.266 µM and 0.122 µM	12.8 µM and 2.84 µM		3.59 µM and 0.567 µM	0.679 µM and 0.197 µM	2.56 µM and 0.608 µM				0.178 µM		0.536 µM and 0.432 µM	0.0324 µM and 0.218 µM	1.79 µM and 0.636 µM			0.2 µM and 0.0548 µM	
COc1ccc2c3ccnc(C(F)(F)F)c3n(CCCCN)c2c1			5.73 µM	22.8 µM	3.39 µM	14.5 µM	7.06 µM	19.3 µM	1.96 µM	13.9 µM	11.6 µM	26.3 µM	10.8 µM	25 µM	2.19 µM	12.8 µM	4.09 µM	22.8 µM	20.1 µM	4.78 µM
CCCCCCCCCCCCCCNCC(OC)OC		23.9 µM				32.3 µM		32.9 µM				35.3 µM		25.7 µM		26.9 µM			23 µM	
OC1OCC(COc2cc(Cl)c(Cl)cc2Cl)OC1O (stereo unspecified)		94.3 µM		> 100 µM		> 100 µM		> 100 µM				> 100 µM		44.6 µM		> 100 µM			90.9 µM	
COc1ccc(N=NC2=C(O)CCC2=O)cc1		> 100 µM		> 100 µM		> 100 µM		> 100 µM				> 100 µM		> 100 µM		> 100 µM			> 100 µM	
CC1(C)CC(=O)C(CC2C(=O)CCCC2=O)C(=O)C1				> 100 µM		> 100 µM		> 100 µM				> 100 µM		> 100 µM		> 100 µM			> 100 µM	
NS(=O)(=O)c1ccc(-n2nc3c(c2-c2cccs2)Cc2ccccc2-3)cc1	5.56 µM	22.7 µM	0.858 µM	3.55 µM	2.49 µM	15.5 µM	12.2 µM	38.7 µM	6.76 µM	20.6 µM	20.7 µM	51.1 µM	12 µM	27.8 µM	25.5 µM	83.1 µM	16.1 µM	51 µM		
O=[N+]([O-])c1ccc2c(c1)C(N1CCN(CCO)CC1)Cc1ccc(F)cc1S2 (stereo unspecified)				12.6 µM		15.7 µM		27.8 µM		15.4 µM		26.3 µM		19 µM		12.4 µM		26.1 µM	23.1 µM	
CCCCCCCCCC1CC(=O)OC2=C1C(=O)CCC2 (stereo unspecified)		> 100 µM		> 100 µM		> 100 µM		> 100 µM				> 100 µM				> 100 µM			> 100 µM	
Clc1ccc2c(NC3CCC(N4CCCCC4)CC3)ccnc2c1 (stereo unspecified)		29.9 µM		62.1 µM		> 100 µM		48.8 µM		> 100 µM		> 100 µM		> 100 µM				56.4 µM	43.5 µM	
NC(=O)NNC/C(Cl)=C(\Cl)C(=O)O				> 100 µM		> 100 µM		> 100 µM				> 100 µM		> 100 µM		> 100 µM			> 100 µM	
C/C(=N\N=C(N)N)C(CN1CCOCC1)C(c1ccccc1)c1c(O)c2ccccc2oc1=O (stereo unspecified)		96.9 µM		> 100 µM		> 100 µM		> 100 µM				> 100 µM		> 100 µM		99.4 µM			> 100 µM	
C[C@]12CC[C@H]3[C@@H](CC[C@]4(O)C[C@@H](O)CC[C@]34C=O)[C@@]1(O)CC[C@@H]2C1=CC(=O)OC1				> 100 µM		19.6 µM		1.63 µM		4.56 µM		0.408 µM		1.47 µM				> 100 µM	47.6 µM	
CCCCCCC(=O)NC1=C(N2CC2)C(=O)C(NC(=O)CCCCCC)=C(N2CC2)C1=O					2.31 µM	> 100 µM	20.2 µM	72.9 µM	1.61 µM	> 100 µM	2.79 µM	> 100 µM			11.7 µM	43.9 µM	3.11 µM	> 100 µM	> 100 µM	3.17 µM
CCC[CH2][Sn]1([CH2]CCC)[O]C(=O)c2cccc([N+](=O)[O-])c2C(=O)[O]1	0.228 µM	1.66 µM			0.89 µM	2.38 µM	0.335 µM	0.805 µM	1.06 µM	2.45 µM	1.77 µM	3.59 µM	0.3 µM	1.31 µM	0.324 µM	1.64 µM	0.907 µM	3.73 µM	1.35 µM	0.206 µM
